Tested on: not listed separately
Assay: Cytotoxicity against mouse Mlg cells assessed as effect on cell viability up to 80 uM after 24 to 48 hrs by MTT assay
Format: cell-based

| Compound | Activity |
| --- | --- |
| CC(C)[C@@H]1CC[C@@]2(C)[C@H](O)CC[C@@]3(O)CO[C@@H]1[C@@H]32 | Non-Toxic |
| CC(=O)[C@@H]1CC[C@H]2[C@H]1[C@@H](C(C)C)CC[C@]2(C)O | Non-Toxic |
| C=C[C@](C)(O)CC[C@H]1C(=C)C[C@H](O)[C@H]2C(C)(C)CCC[C@]12C | Non-Toxic |
| C=C1CC[C@@H](O)[C@]2(C)CC[C@H](C(C)C)[C@@H](O)[C@H]12 | Non-Toxic |
| CC(C)[C@@H]1CC[C@@]2(C)[C@H](O)CCC(CO)=C[C@@H]12 | Non-Toxic |
| Cc1cccc(-c2[nH]c(C(C)(C)C)nc2-c2ccc3nccnc3c2)n1 | Toxic |
| C=C1CC[C@@H](O)[C@]2(C)CC[C@@H](C(C)C)[C@H](O)[C@@H]12 | Non-Toxic |
| CC1(C)C[C@H]2[C@H]1CC[C@@]1(C)C[C@]2(O)CC[C@@H]1O | Non-Toxic |
| CC(C)[C@@H]1CC[C@@]2(C)C(=O)CCC(C=O)=C[C@@H]12 | Non-Toxic |
| COc1ccc(C2CC(=O)c3c(O)cc(O)c(C)c3O2)cc1 (stereo not given) | Non-Toxic |
| CC(C)[C@H]1CC[C@@]2(C)[C@@H]1[C@@H]1O[C@]1(CO)CC[C@@H]2O [SANICULAMOID B] | Non-Toxic |
| CC(C)[C@@H]1CC[C@@]2(C)[C@H](O)CCC(C=O)=C[C@H]12 | Non-Toxic |
| CO[C@@]12CC[C@@H](O)[C@@](C)(CC[C@@H]3[C@@H]1CC3(C)C)C2 | Non-Toxic |
| C=C1CCC(=O)[C@]2(C)CC[C@@H](C(C)C)[C@@H]2C1O (stereo not given in full) | Non-Toxic |

Target: Transforming growth factor beta-1 proprotein/Mothers against decapentaplegic homolog 3 (Mus musculus) (UniProt P04202+Q8BUN5)
Assay: Inhibition of TGF beta1/Smad3 signaling in mouse NIH/3T3 cells harboring CAGA promoter at 10 uM incubated for 18 hrs in presence of TGF-beta1 by luciferase reporter gene assay relative to control
Format: cell-based

Chain of Transforming growth factor beta-1 proprotein/Mothers against decapentaplegic homolog 3 (Mus musculus) (P04202 279-390 limits assumed): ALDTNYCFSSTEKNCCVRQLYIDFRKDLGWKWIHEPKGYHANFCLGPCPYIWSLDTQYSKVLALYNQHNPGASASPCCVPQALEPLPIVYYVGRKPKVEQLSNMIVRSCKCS
Chain of Transforming growth factor beta-1 proprotein/Mothers against decapentaplegic homolog 3 (Mus musculus) (Q8BUN5 2-425 partner limits assumed): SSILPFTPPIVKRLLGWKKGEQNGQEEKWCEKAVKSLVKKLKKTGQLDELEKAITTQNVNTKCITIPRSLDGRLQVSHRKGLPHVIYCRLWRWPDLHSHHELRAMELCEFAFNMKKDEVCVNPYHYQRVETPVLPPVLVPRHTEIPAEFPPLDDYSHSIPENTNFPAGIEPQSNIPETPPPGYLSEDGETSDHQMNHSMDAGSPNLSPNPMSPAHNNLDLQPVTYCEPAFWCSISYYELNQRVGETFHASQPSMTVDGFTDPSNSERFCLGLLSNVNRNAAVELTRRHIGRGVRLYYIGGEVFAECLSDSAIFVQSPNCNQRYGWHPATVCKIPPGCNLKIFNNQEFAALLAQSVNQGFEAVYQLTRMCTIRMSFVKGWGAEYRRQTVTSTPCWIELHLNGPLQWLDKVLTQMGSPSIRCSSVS

| Compound | inhibition |
| --- | --- |
| CC1(C)C[C@H]2[C@H]1CC[C@@]1(C)C[C@]2(O)CC[C@@H]1O | 67.9% |
| COc1ccc(C2CC(=O)c3c(O)cc(O)c(C)c3O2)cc1 (stereo not given) | 93.1% |

Target: Transforming growth factor beta-1 proprotein/Mothers against decapentaplegic homolog 3 (Mus musculus, UniProt P04202+Q8BUN5)
Assay: Inhibition of TGF beta1/Smad3 signaling in mouse NIH/3T3 cells harboring CAGA promoter incubated for 18 hrs in presence of TGF-beta1 by luciferase reporter gene assay
Format: cell-based

Chain of Transforming growth factor beta-1 proprotein/Mothers against decapentaplegic homolog 3 (P04202 279-390 limits assumed): as the sequence (P04202 279-390 limits assumed) above
Chain of Transforming growth factor beta-1 proprotein/Mothers against decapentaplegic homolog 3 (Q8BUN5 2-425 limits assumed): as the sequence (Q8BUN5 2-425 partner limits assumed) above

| Compound | IC50 |
| --- | --- |
| Cc1cccc(-c2[nH]c(C(C)(C)C)nc2-c2ccc3nccnc3c2)n1 | 70.5 nM |
| CC1(C)C[C@H]2[C@H]1CC[C@@]1(C)C[C@]2(O)CC[C@@H]1O | 3670 nM |
| COc1ccc(C2CC(=O)c3c(O)cc(O)c(C)c3O2)cc1 (stereo not given) | 380 nM |
| Cc1ccc(=O)n(-c2ccccc2)c1 [PIRFENIDONE] | 1430 nM |
